The values below come from US20250122182A1 (Isosterix, Inc., priority 2023, published 2025).

The experiment addresses Recombinant KAT6A/MOZ (488-778) protein (Homo sapiens (Human), UniProt Q92794). Put plainly: KAT6A AlphaLISA Inhibition Screening Assay. The format is biochemical. The conditions noted are these: for inhibition at 1 µM: read-out: Average Kat6A % inhibition @ 1 μM; for inhibition at 10 µM: read-out: Average Kat6A % inhibition @ 10 μM. The procedure:
The Kat6a inhibitory activity of test compounds was determined using an Alpha Screen-based detection method. The assay reactions were conducted in a volume of 10 μL in Alpha Plate, White 384 well plate (cat #6008280, Perkin Elmer). The enzymatic reactions were performed in assay buffer pH 8.0 (50 mM Tris-HCl, 0.1 mM EDTA, 0.01% Tween-20, 1 mM Dithiothreitol, 0.1% BSA (fatty acid free) and 330 nM TSA (Trichostatin A)). 10 μL reaction volume consisting of 25 nM of Recombinant KAT6A/MOZ (488-778) protein (Active motif, Catalog #81223), 400 nM Acetyl coenzyme A (Catalog #A2056, Sigma), 200 nM of Histone H3 peptide [(amino acids 1-21), biotin-labeled (BPS Biosciences, Catalog #52011)]. Test compounds were screened at different doses starting with 10 μM, 3 fold dilution and 10 point Dose response curve. Enzyme and compounds solution were pre-incubated in assay plate for 60 or 10 min at room temperature then substrate and Acetyl coenzyme A solution were added to the plate. After addition, the plate was sealed with adhesive seals and incubated for 120 minutes at room temperature.
After 120 minutes of incubation, […] of AlphaLISA anti-acetyl-Lysine acceptor beads (Perkin Elmer, Catalog #AL143C) were added to the plate and it was incubated for 60 minutes at room temperature. Then […] of Alpha Streptavidin donor beads (Perkin Elmer, Catalog #6760002S) were added to the plate which was further incubated for 60 minutes at room temperature. After incubation, the alpha signal was recorded by using Perkin Elmer Envision multi-mode reader. Percent inhibition of enzyme activity by test compounds were determined relative to vehicle control.

Sequence of Recombinant KAT6A/MOZ (488-778) protein (Q92794 488-778): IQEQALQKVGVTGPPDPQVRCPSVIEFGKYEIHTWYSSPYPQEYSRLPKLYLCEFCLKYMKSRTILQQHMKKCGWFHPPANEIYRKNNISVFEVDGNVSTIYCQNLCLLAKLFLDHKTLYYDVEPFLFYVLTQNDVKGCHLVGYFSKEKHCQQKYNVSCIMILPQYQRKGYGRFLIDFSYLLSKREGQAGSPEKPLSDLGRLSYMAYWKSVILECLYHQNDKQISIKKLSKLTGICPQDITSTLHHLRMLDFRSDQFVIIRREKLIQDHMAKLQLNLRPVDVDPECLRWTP

As to `C=C(F)C(=O)NCc1cnn(Cc2cc(OC)c3c(NS(=O)(=O)c4cc(CC)ccc4OCCN)noc3c2)c1` [Syn. Ex. 76, N-((1-((3-((2-(2-aminoethoxy)-5-ethylphenyl)sulfonamido)-4-methoxybenzo[d]isoxazol-6-yl)methyl)-1H-pyrazol-4-yl)methyl)-2-fluoroacrylamide], under “1 μM test compound”, the inhibition at 1 µM is 74%. Moreover, the inhibition at 10 µM (10 μM test compound) stood at 96%.
The like results for `C#CC(=O)Nc1ccc(Oc2cc(OC)c3c(NS(=O)(=O)c4cc(CC)ccc4OC)noc3c2)nc1` [Syn. Ex. 108, N-(6-((3-((5-ethyl-2-methoxyphenyl)sulfonamido)-4-methoxybenzo[d]isoxazol-6-yl)oxy)pyridin-3-yl)propiolamide] were, in that order, 99% and 100%.
On the same counts, the results for `C=C(F)C(=O)N1Cc2cnn(Cc3cc(OC)c4c(NS(=O)(=O)c5cc(CC)ccc5OC)noc4c3)c2C1` [Syn. Ex. 13, 5-ethyl-N-(6-((5-(2-fluoroacryloyl)-5,6-dihydropyrrolo[3,4-c]pyrazol-1(4H)-yl)methyl)-4-methoxybenzo[d]isoxazol-3-yl)-2-methoxybenzenesulfonamide] are 99% and 100%.
The like results for `CCc1ccc(OC)c(S(=O)(=O)Nc2noc3cc(Oc4cccc(CNC(=O)OC)n4)cc(OC)c23)c1` [Syn. Ex. 106, methyl ((6-((3-((5-ethyl-2-methoxyphenyl)sulfonamido)-4-methoxybenzo[d]isoxazol-6-yl)oxy)pyridin-2-yl)methyl)carbamate] were, in that order, 10% and 44%.
As for `C#CC(=O)NCc1cnn(Cc2cc(OC)c3c(NS(=O)(=O)c4cc(CC)ccc4OCC#N)noc3c2)c1` [Syn. Ex. 69, N-((1-((3-((2-(cyanomethoxy)-5-ethylphenyl)sulfonamido)-4-methoxybenzo[d]isoxazol-6-yl)methyl)-1H-pyrazol-4-yl)methyl)propiolamide], the inhibition at 1 µM (1 μM test compound) was 96%. In addition, the inhibition at 10 µM (10 μM test compound) was 99%.
Regarding `C#CC(=O)NCc1cnn(Cc2cc(OC)c3c(NS(=O)(=O)c4c(OC)ccnc4OC)noc3c2)c1` [Syn. Ex. 85, N-((1-((3-((2,4-dimethoxypyridine)-3-sulfonamido)-4-methoxybenzo[d]isoxazol-6-yl)methyl)-1H-pyrazol-4-yl)methyl)propiolamide], the “Average Kat6A % inhibition @ 1 μM” value (1 μM test compound) came out at 91%. Further, the “Average Kat6A % inhibition @ 10 μM” value (10 μM test compound) was 95%.
On to `C=C(F)C(=O)NCc1cnn(Cc2cc(OC)c3c(NS(=O)(=O)c4ccc(OC)cc4OC)noc3c2)c1` [Syn. Ex. 60, N-((1-((3-((2,4-dimethoxyphenyl)sulfonamido)-4-methoxybenzo[d]isoxazol-6-yl)methyl)-1H-pyrazol-4-yl)methyl)-2-fluoroacrylamide], for which the inhibition at 1 µM (1 μM test compound) came out at 93%. The inhibition at 10 µM (10 μM test compound) is 100%.
On the same counts, the results for `CCc1ccc(OC)c(S(=O)(=O)Nc2noc3cc(Cn4cc(CNC(N)=O)cn4)cc(OC)c23)c1` [Syn. Ex. 90, 5-ethyl-2-methoxy-N-(4-methoxy-6-((4-(ureidomethyl)-1H-pyrazol-1-yl)methyl)benzo[d]isoxazol-3-yl)benzenesulfonamide] are 99% and 100%.
For the compound `C=C(F)C(=O)NCc1cnn(Cc2cc(OC)c3c(NS(=O)(=O)c4cc(CC)ccc4OCc4nc[nH]n4)noc3c2)c1` [Syn. Ex. 80, N-((1-((3-((2-((1H-1,2,4-triazol-3-yl)methoxy)-5-ethylphenyl)sulfonamido)-4-methoxybenzo[d]isoxazol-6-yl)methyl)-1H-pyrazol-4-yl)methyl)-2-fluoroacrylamide], the inhibition at 1 µM (1 μM test compound) came out at 100%. For the setting “10 μM test compound”, the inhibition at 10 µM worked out at 100%.
Turning to `C=C(F)C(=O)NCc1cnn(Cc2cc(OC)c3c(NS(=O)(=O)c4ccccc4OCc4ccccc4)noc3c2)c1` [Syn. Ex. 36, N-((1-((3-((2-(benzyloxy)phenyl)sulfonamido)-4-methoxybenzo[d]isoxazol-6-yl)methyl)-1H-pyrazol-4-yl)methyl)-2-fluoroacrylamide], the inhibition at 1 µM (1 μM test compound) is 93%. The inhibition at 10 µM (10 μM test compound) was 97%.
